Source: PubChem BioAssay (NCI)
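Each compound was tested at five concentrations against cells in 96-well plates for 48 hours. GI50 = concentration required for 50% inhibition of growth. The concentration for full growth arrest is given as TGI.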

What was measured:
Experiment in all cases: NCI-60 cell line screen, 48 h
M14 melanoma = tested on: M14 melanoma
MDA-MB-231 breast = tested on: MDA-MB-231 breast
A549 NSCLC = tested on: A549 NSCLC
RXF 393 renal = tested on: RXF 393 renal
SK-MEL-5 melanoma = tested on: SK-MEL-5 melanoma
OVCAR-8 ovarian = tested on: OVCAR-8 ovarian
EKVX NSCLC = tested on: EKVX NSCLC
UO-31 renal = tested on: UO-31 renal

Compound | GI50 (M14 melanoma) [µM] | TGI (M14 melanoma) [µM] | GI50 (MDA-MB-231 breast) [µM] | TGI (MDA-MB-231 breast) [µM] | GI50 (A549 NSCLC) [µM] | TGI (A549 NSCLC) [µM] | GI50 (RXF 393 renal) [µM] | TGI (RXF 393 renal) [µM] | GI50 (SK-MEL-5 melanoma) [µM] | TGI (SK-MEL-5 melanoma) [µM] | GI50 (OVCAR-8 ovarian) [µM] | TGI (OVCAR-8 ovarian) [µM] | GI50 (EKVX NSCLC) [µM] | TGI (EKVX NSCLC) [µM] | GI50 (UO-31 renal) [µM] | TGI (UO-31 renal) [µM]
COc1ccc2c(O)c(/C=C3\N=Nc4ncccc43)oc2c1C[C@H]1CCNC[C@H]1F | 0.589 | 3.64 | 0.184 | 3.02 | 1.74 | 10.8 | 0.183 | 0.55 | 0.942 | 10.6 | 0.477 | 12.3 | 0.484 | 9.62 | 0.146 | 3.16
COc1ccc(C2=CC(c3ccc(Oc4ccnc5cc(Cl)ccc45)c(OC)c3)c3c(nc(OC)[nH]c3=O)N2)cc1 (configuration not stated) | 88.4 | > 100 | 8.62 | > 100 | 5.66 | > 100 | 21.8 | > 100 | 7.28 | 34.1 | 4.85 | > 100 |  |  | 5.97 | > 100
COc1cc(/C=C2\CCCC3C2=Nc2ccccc2NC3c2cc(OC)c(OC)c(OC)c2)cc(OC)c1OC (configuration not stated) | 1.27 | 4.23 | 2.9 | 25 | 1.9 | 8.06 | 2.08 | 5.31 | 1.95 | 5.72 | 0.4 | 42.9 | 7.45 | > 100 | 1.66 | 4.48
C[C@@H]1[C@H]2[C@H](C=C3[C@@H]4CC[C@H]5Cc6nc7c(nc6C[C@]5(C)[C@H]4C[C@@H](O)[C@@]32C)C[C@@H]2CC[C@H]3C4=C[C@@H]5O[C@@]6(CC[C@](C)(CO)O6)[C@@H](C)[C@@]5(O)[C@@]4(C)[C@H](O)C[C@@H]3[C@@]2(C)C7)O[C@]12CCC(C)(C)O2 | 1.22 | 10.5 | 0.469 | 2.62 | 0.809 | 14.6 | 0.0706 | 0.333 | 0.783 | 5.2 | 10.1 | > 100 | 0.377 | 14.1 | 0.275 | 1.54
Nc1ccc(-c2ccc(Nc3cc(S(=O)(=O)O)c(N)c4c3C(=O)c3ccccc3C4=O)cc2)c(S(=O)(=O)O)c1 |  | > 100 |  | > 100 |  | > 100 |  | > 100 |  | > 100 |  | > 100 |  | > 100 |  | > 100
O=C1c2ccc3c4c(ccc(c24)C(=O)N1CCCNCc1ccccc1)C(=O)N(CCCNCc1ccccc1)C3=O | 0.161 | 0.307 | 0.238 | 0.917 | 0.131 | 0.365 | 0.135 | 0.27 | 0.165 | 0.302 | 0.0993 | 0.407 | 0.165 | 0.323 | 0.148 | 0.364
O=C1OCC2=C1C(c1cccc(C(F)(F)F)c1)c1cc3c(cc1N2CCO)OCO3 (configuration not stated) |  |  | 1.77 | > 50 | 2.9 | > 50 |  |  | 0.937 | 15.9 | 2.51 | > 50 | 1.75 | > 50 | 2.19 | > 50
Fc1c[c-]c(-c2ccccn2)c(F)c1.[CH3-].[Pt+2].c1ccc([PH+](c2ccccc2)c2ccccn2)cc1 |  |  | 1.61 | 3.31 | 2.66 | > 100 | 1.32 | 2.76 | 1.6 | 3 | 2.25 | > 100 | 1.96 | 5.52 | 1.08 | 2.28
CC(C)(C)OC(=O)N1CC(Cn2cc(C(F)(F)F)c3c(Cl)ncnc32)C1 | 1.72 | 3.38 | 6.92 | 23.4 | 14 | 28.2 | 1.43 | 3.59 | 1.79 | 3.21 | 1.84 | 3.58 | 2.63 | 10.2 | 2.71 | 10.8
c1ccc(CCCNc2nnnc3ccccc23)cc1 |  | > 100 |  | > 100 |  | > 100 |  | > 100 |  | > 100 |  | > 100 |  | > 100 |  | 
COc1cc([N+](=O)[O-])c(S(=O)(=O)O)cc1N |  | > 100 |  | > 100 |  | > 100 |  |  |  | > 100 |  | > 100 |  | > 100 |  | > 100
CN(C)CCN1C(=O)c2cccc3c(N)ccc(c23)C1=O | 11.3 | > 25 | 16 | > 25 | 9.04 | > 25 | 7.91 | 24.8 | 9.13 | > 25 | 9.53 | > 25 | 14.2 | > 25 | 6.76 | > 25
C=CC(=O)NCCOc1cccc(Nc2cc(NCCCNC(=O)C3CCC3)c(Br)cn2)c1 | 1.79 | 7.86 | 0.478 | 1.48 | 0.881 | 14.7 | 0.283 | 0.639 | 1.39 | 5.24 | 1.82 | > 25 | 2.31 | 22.5 | 0.372 | 1.11
COc1ccccc1-c1ccc2nc(NC(=O)Nc3cc(C(F)(F)F)cc(C(F)(F)F)c3)sc2c1 | 1.54 | 3.22 | 1.95 | 4.24 | 3.19 | 11.8 | 2.19 | 6.18 | 1.57 | 2.98 | 3.04 | 11.2 |  |  | 1.79 | 4.07
CCN1CCC2(CC1)NC(=O)c1c(c3ccc(Cl)c(Cl)c3n1C)C2C#N (configuration not stated) | 1.62 | 3.1 | 1.97 | 4.43 | 3.13 | 13.5 | 1.24 | 4.13 | 1.61 | 3.06 |  |  | 3.4 | 17.8 | 1.84 | 5.03
NC(=O)c1ccc2nc(-c3ccc(C4(N)CCC4)cc3)c(-c3ccccc3)n2n1 | 14.3 | 28.6 | 14.3 | 32.3 | 11.7 | 28.5 | 0.335 | 4.13 | 10.9 | 23.3 | 17.4 | 39.3 | 13.6 | 49.6 | 0.409 | 13.5
Nc1c(S(=O)(=O)O)cc(Nc2cccc(S(N)(=O)=O)c2)c2c1C(=O)c1ccccc1C2=O |  | > 100 |  | > 100 |  | > 100 |  | > 100 |  | > 100 |  | > 100 |  | > 100 |  | > 100

Compound | GI50 (M14 melanoma) [µM] | TGI (M14 melanoma) [µM] | GI50 (MDA-MB-231 breast) [µM] | TGI (MDA-MB-231 breast) [µM] | GI50 (A549 NSCLC) [µM] | TGI (A549 NSCLC) [µM] | GI50 (RXF 393 renal) [µM] | TGI (RXF 393 renal) [µM] | GI50 (SK-MEL-5 melanoma) [µM] | TGI (SK-MEL-5 melanoma) [µM] | GI50 (OVCAR-8 ovarian) [µM] | TGI (OVCAR-8 ovarian) [µM] | GI50 (EKVX NSCLC) [µM] | TGI (EKVX NSCLC) [µM] | GI50 (UO-31 renal) [µM] | TGI (UO-31 renal) [µM]
Cc1cc(C(=O)N[C@@H](CCC(=O)O)C(=O)O)sc1CC[C@@H]1CNc2nc(N)[nH]c(=O)c2C1 | < 0.0124 | > 100 | 5.56 | > 100 | 0.0436 | > 100 | < 0.0153 | > 100 | 0.0679 | > 100 | < 0.0172 | > 90.6 |  |  | < 0.01 | > 100
C/C(=C1/N=C(c2ccccc2)OC1=O)c1ccc(C)cc1 |  | > 100 |  | > 100 |  | > 100 |  | > 100 |  | > 100 |  | > 100 |  | > 100 |  | 
COc1cc(-c2nc(-c3nnc(-c4ccc(F)c(Cl)c4)o3)c3ccccn23)cc(OC)c1OC | 3.27 | > 100 | 2.15 | 14.7 |  |  | 2.62 | 7 | 3.03 | > 100 | 1.69 | 4.44 | 4.19 | > 100 | 2.2 | 7.64
COc1cc(-c2cc(-c3nc4cc(Cl)c(Cl)cc4[nH]3)[nH]n2)cc(OC)c1OC | 3.57 | 13.3 | 4.14 | 20.1 | 2.87 | 10.5 | 3.17 | 13.5 | 1.56 | 3.24 | 2.51 | 7.48 |  |  | 2.47 | 8.48
O=C1c2ccccc2C(=O)c2c(NC(=O)C(Cl)CCl)cccc21 (configuration not stated) |  | 20.9 |  | 18.4 |  | 47.6 |  | 16.2 |  | 28.1 |  | > 39.1 |  | 42.7 |  | 24.1
O=C(CCc1ccco1)NC1CCN(CC2(c3ccc(Cl)cc3)CCC2)CC1 |  |  | 5.79 | 20.1 | 14.6 | 32.5 | 8.53 | 22.6 | 15.2 | 28.7 | 14.5 | 30.1 |  |  | 7.37 | 21.3
COc1ccc(N2CCN(CN3CCN(c4ccc(OC)cc4)C3)C2)cc1 | > 100 | > 100 | > 100 | > 100 | > 100 | > 100 | > 100 | > 100 | > 100 | > 100 | > 100 | > 100 | > 100 | > 100 | > 100 | > 100
COc1cc(/C=C/C(=O)NC[C@]2(O)CCC3C4CCc5cc(O)ccc5C4CCC32C)ccc1O (some centres not stated) | 4.99 | 37.6 | 18 | > 100 | 7.64 | > 100 | 6.42 | 85.5 | 2.91 | 19.3 | 23.8 | > 100 | 13.9 | > 100 | 4.93 | 49.3
COc1ccc2c(c1)C(=O)c1c-2c(OCCN(C)C)nc2cc(OC)ccc12 | 1.51 | 3.05 | 1.42 | 3.88 | 0.804 | 2.8 | 1.54 | 4.52 | 1.73 | 3.38 | 0.957 | 5.35 | 2.13 | 8.63 | 1.16 | 2.66
CN1C(=O)N(C)C2C1NN=c1s/c(=C\c3c[nH]c4ccccc34)c(=O)n12 (configuration not stated) | 0.0294 | > 100 | 0.0671 | > 100 | 0.109 | > 100 |  |  | 0.0347 | 0.184 | 0.0547 | > 100 | 0.0577 | > 100 |  | 
CC(C)(C)CC(C)(C)N(CSc1ccc(Cl)cc1)CSc1ccc(Cl)cc1 | 1.92 | 5.91 | 0.486 | 2.2 | 0.452 | 7.7 | 1.87 | 7.06 | 1.29 | 2.61 | 1.74 | 7.57 |  |  | 0.489 | 1.93
Cc1cc(Nc2cc(CN3CCOCC3)c3nc(C)c(Cc4ccc(Cl)cc4F)n3n2)n[nH]1 | 1.83 | 14.2 | 1.57 | 5.65 | 0.919 | 6.16 | 0.545 | 2.13 | 2.27 | 8.72 | 2.79 | 17.2 |  |  | 1.41 | 2.97
COc1cc(-c2nc3ccccc3[nH]2)ccc1OCC(=O)N=Nc1c(O)[nH]c2ccc(Cl)cc12 | 1.67 | 3.65 | 0.547 | 1.86 | 3.72 | > 100 | 1.8 | 3.48 | 1.72 | 3.2 |  |  | 4.94 | > 100 | 52.3 | > 100
CN(C)c1ccc(/C=C/c2ccnc3ccc4ccccc4c23)cc1 |  | > 100 |  | > 100 |  | > 100 |  | 44.9 |  | > 100 |  | > 100 |  |  |  | > 100
COc1cc(OC)cc(-c2ccc(-c3ccc(C(=N)N)s3)s2)c1 | 1.1 | 2.74 | 0.8 | 2.62 | 1.63 | 3.37 | 1.25 | 2.99 | 1.41 | 2.81 | 1.66 | 4.16 |  |  | 1.51 | 3.31
CCOC(=O)/C(=C/c1ccccc1)C(=O)c1ccccc1 | 3.77 | 15.5 | 3.06 | 12 | 4.4 | 19.9 | 2.04 | 3.92 | 2.91 | 9.35 | 2.4 | 6.79 |  |  | 1.76 | 3.55
